We go through three molecules from ChEMBL document CHEMBL1129017, “Chemical feasibility studies of a potential coumarin-based prodrug system” (Bioorg Med Chem Lett, 1996).

The nature of the data set: Compound was evaluated for its half life period. Type of data set: ADME.

The molecule `CC(=O)Oc1ccccc1/C=C\C(=O)NCc1ccccc1` had a half-life of 16.3 min.

Take `CC(=O)Oc1ccccc1/C=C\C(=O)N(C)Cc1ccccc1`: the half-life was 31.2 min.

As for `COc1ccc(NC(=O)/C=C\c2ccccc2OC(C)=O)cc1`, the half-life was 1.63 min.
